IC50 and EC50 data for ten molecules are collected here from PMC8329922, “Credentialing and Pharmacologically Targeting PTP4A3 Phosphatase as a Molecular Target for Ovarian Cancer” (Biomolecules, 2021).

The target in one data set is T1, recombinant human PTP4A3 (Homo sapiens, UniProt O75365).
T1 construct: The cDNA for the full-length ptp4a3 was obtained from OriGene (SC308739); His6 (N); host or cells: E. coli BL21 (DE3)
Kind of data set: In vitro phosphatase inhibition (DiFMUP substrate). To be noted: Mean ± SEM, N = 3, * N = 6, ** N = 8; DiFMUP 12 μM, 25 °C, 30 min; read-out: in vitro IC50 against recombinant human PTP4A3. Type of data set: biochemical.

The next data set relates to COV362-47R. Kind of data set: Cytotoxicity, 3D spheroids, CellTiter Glo 3D. Type of data set: cell-based. To be noted: Homo sapiens, 48 h exposure, carboplatin resistant line, read-out: EC50 (μM ± SEM) COV362-47R. (In general: Cellular ATP, detected with luciferase, serves as a proxy for viable cell number.)
A further data set has as its system COV362. Kind of data set: Cytotoxicity, 3D spheroids, CellTiter Glo 3D. Type of data set: cell-based. Particulars: Homo sapiens, 48 h exposure, read-out: EC50 (μM ± SEM) COV362.
The test system of a further data set is Kuramochi. Kind of data set: Cytotoxicity, 3D spheroids, CellTiter Glo 3D. Type of data set: cell-based. To be noted: Homo sapiens, 48 h exposure, read-out: EC50 (μM ± SEM) Kuramochi.
The next data set concerns OVCAR4. The data set is described as follows: Cytotoxicity, 3D spheroids, CellTiter Glo 3D. The data set is classed as cell-based. Particulars: Homo sapiens, OVCAR-4, 48 h exposure, read-out: EC50 (μM ± SEM) OVCAR4.
In a further data set the test system is OVSAHO. Kind of data set: Cytotoxicity, 3D spheroids, CellTiter Glo 3D. The data set is classed as cell-based. Particulars: Homo sapiens, 48 h exposure, read-out: EC50 (μM ± SEM) OVSAHO.
Another data set concerns V581. Kind of data set: Cytotoxicity, 3D spheroids, CellTiter Glo 3D. Type of data set: cell-based. Particulars: Homo sapiens, 48 h exposure, patient-derived cell line, read-out: EC50 (μM ± SEM) V581.
In the next data set the test system is COV362 parent line. The data set is described as follows: Viability assay with 3-(4,5-dimethylthiazol-2-yl)-2,5-diphenyltetrazolium bromide. Type of data set: cell-based, human. To be noted: MTT viability assay, read-out: EC50 (concentration that caused a 50% cytotoxicity). In general terms: Formazan colour is commonly taken as a measure of viable cells.
The test system of another data set is COV362-47R cells. The data set is described as above. To be noted: MTT viability assay, read-out: EC50 (concentration that caused a 50% cytotoxicity). Type of data set: cell-based, human.

A value given as a limit tells only on which side of the number the result lay.

T1 sequence (O75365 whole entry): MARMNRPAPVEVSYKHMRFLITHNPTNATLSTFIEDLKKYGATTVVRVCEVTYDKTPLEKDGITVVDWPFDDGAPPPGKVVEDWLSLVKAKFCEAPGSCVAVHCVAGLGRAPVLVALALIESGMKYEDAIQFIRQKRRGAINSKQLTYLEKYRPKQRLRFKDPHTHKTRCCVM

In general, IC50 refers to the point on the concentration scale where inhibition reaches its midpoint. As to `N=C1C(=O)NC(=O)c2c(-c3ccccc3)csc21` [EJR-912-41], the 50% inhibitory concentration (IC50) at recombinant human PTP4A3 was found to be 0.0637 ± 0.0073 µM. Also, the EC50 in the data set on COV362-47R is above 50 µM; in the data set with COV362 it was 31.6 ± 6.8 µM; with Kuramochi, 7 µM; in the data set with OVCAR4, 26.9 ± 3.9 µM; in the data set with OVSAHO it was 38.7 ± 1.7 µM; with V581, above 50 µM.
In the case of `O=C1NC(=O)c2c(-c3ccccc3)csc2C1=O` [EJR-912-43], the half-inhibitory concentration (IC50) at recombinant human PTP4A3 was determined as 0.0537 ± 0.0124 µM. Besides, the EC50 in the data set with COV362-47R, in the data set with COV362, in the data set with Kuramochi, with OVCAR4, with OVSAHO and in the data set with V581 was above 50 µM throughout.
Take `Cc1cc2c(s1)C(=O)C(=O)NC2=O` [EJR-912-50]: the IC50 at recombinant human PTP4A3 is 0.0606 ± 0.006 µM. In addition, the EC50 in the data set on COV362-47R, in the data set with COV362, with Kuramochi, in the data set with OVCAR4, with OVSAHO and with V581 was above 50 µM in each case.
As for `Cc1cc2c(s1)C(=N)C(=O)NC2=O` [EJR-912-57], the IC50 on recombinant human PTP4A3 came to 0.0897 ± 0.014 µM. In addition, the EC50 in the data set on COV362-47R was above 50 µM; in the data set with COV362, 28.3 ± 3.1 µM; in the data set with Kuramochi it was above 50 µM; in the data set on OVCAR4, above 25 µM; in the data set with OVSAHO, above 50 µM; in the data set with V581 it was above 50 µM.
On to `CN1C(=O)C(=N)c2sc(-c3ccccc3)cc2C1=O` [NRT-870-59], for which the EC50 in the data set on COV362-47R is above 50 µM; in the data set with COV362 it was above 50 µM; with Kuramochi, 30.6 µM; in the data set on OVCAR4 it was above 50 µM; in the data set on OVSAHO, above 50 µM; in the data set with V581, above 50 µM.
Take `O=C(c1cc(Cc2n[nH]c(=O)c3ccccc23)ccc1F)N1CCN(C(=O)C2CC2)CC1` [Olaparib]: the EC50 in the data set with COV362-47R, in the data set on COV362, with Kuramochi, in the data set with OVCAR4, with OVSAHO and in the data set on V581 was above 50 µM each time.
Turning to `CC(=O)O[C@H]1C(=O)[C@@]2(C)[C@H]([C@H](OC(=O)c3ccccc3)[C@]3(O)C[C@H](OC(=O)[C@H](O)[C@@H](NC(=O)c4ccccc4)c4ccccc4)C(C)=C1C3(C)C)[C@]1(OC(C)=O)CO[C@@H]1C[C@@H]2O` [Paclitaxel, reference compound], the EC50 with COV362-47R, with COV362, in the data set on Kuramochi, in the data set on OVCAR4, with OVSAHO and in the data set with V581 was above 5 µM in each case.
Consider `CC[C@@]1(O)C(=O)OCc2c1cc1n(c2=O)Cc2cc3c(CN(C)C)c(O)ccc3nc2-1` [Topotecan, reference compound], for which the EC50 with COV362-47R was 25.3 ± 9.8 µM; in the data set with COV362, 2.5 ± 0.7 µM; with OVCAR4, 2.5 ± 0.8 µM; with OVSAHO it was 2.5 ± 1.1 µM.
On to `C[C@]1(c2nc3c(C(N)=O)cccc3[nH]2)CCCN1` [Veliparib, reference compound], for which the EC50 in the data set on COV362-47R, in the data set with COV362, in the data set with Kuramochi, in the data set with OVCAR4, with OVSAHO and in the data set on V581 was above 50 µM in each case.
Take `N.N.O=C([O-])C1(C(=O)[O-])CCC1.[Pt+2]` [carboplatin]: the EC50 with COV362 parent line was around 20 µM; with COV362-47R cells, around 200 µM.
